The numbers were not newly measured in paper PMC5408581, “Using X-ray Crystallography, Biophysics, and Functional Assays to Determine the Mechanisms Governing T-cell Receptor Recognition of Cancer Antigens” (Journal of Visualized Experiments : JoVE, 2017), which cites them from elsewhere.

Read-outs that look alike come from different tables or passages of the source.

Data set [1] deals with gp100 TCR (TRAV17 TRBV19). Also noted: method as in PMID 26917722. The following applies: SPR, CM5 chip, 25 °C, table reprinted; for Kd: read-out: gp100 TCR TRAV17 TRBV19 Affinity KD. On the technique in general: Surface plasmon resonance follows binding to a sensor surface in real time, without labels.
For data set [2], the target named is PMEL17 TCR (TRAV21 TRBV7-3). More on the design: method as in PMID 26917722. The following applies: SPR, CM5 chip, 25 °C, table reprinted.
Setting [3] is: peptide refolded with biotin-tagged HLA-A*0201/β2m and coupled via streptavidin (~500-600 RU), ten serial dilutions of soluble TCR, 30 µL/min, equilibrium KD by nonlinear fit.

With “YLEPAPVTA [YLE-5A, with HLA-A*0201 called A2-YLE-5A]”, the Kd was greater than 1 mM in data set [1] (peptide-HLA-A*0201 coupled via streptavidin, soluble TCR injected, bound given in mM) and greater than 1 mM in data set [2] (read-out: PMEL17 TCR TRAV21 TRBV7-3 Affinity KD, peptide-HLA-A*0201 coupled via streptavidin, soluble TCR injected, bound given in mM).

As to “YLEPGPVTV [YLE-9V, with HLA-A*0201 called A2-YLE-9V]”, in data set [1] (setting [3]), the Kd was 0.0219 ± 0.0024 mM.

On to “YLAPGPVTA [YLE-3A, with HLA-A*0201 called A2-YLE-3A]”, for which the “gp100 TCR TRAV17 TRBV19 Affinity KD” value in data set [1] (setting [3]) is “No binding”. For the same sequence, the “PMEL17 TCR TRAV21 TRBV7-3 Affinity KD” value in data set [2] (setting [3]) is recorded as “No binding”.

“YLEPGPVTA [presented by HLA-A*0201 it is called A2-YLE]”: the Kd in data set [1] (setting [3]) was 0.0265 ± 0.0023 mM.

Broadly, the Kd is a measure of binding affinity in units of concentration.
